Consider 23 compounds from patent publication US20260001914A1, “MACROCYCLIC PEPTIDES TARGETING KRAS” (Merck Sharp & Dohme LLC, priority 2022, published 2026).

*1 amine or outer side, *2 acyl side, *3 side chain or, on linkers, in order; H or OH if unused. Where a SMILES comes first, the peptide text is derived from it. Bridges are numbered along the chain shown (N, C = ends). [ ]: non-standard residue; d: D form. X48 = CCCC[C@@H](/C=C\[C@@H](Cc1cccnc1)C(=O)[*:2])N[*:1]; X75 = CCC[C@H](N[*:1])c1nncn1[C@@H](Cc1ccccc1)C(=O)[*:2]; Ala(pyrimidin-5-yl) = N[C@@H](Cc1cncnc1)C(=O)O; Phe(2-F) = N[C@@H](Cc1ccccc1F)C(=O)O; NMe3Pal = CN[C@@H](Cc1cccnc1)C(=O)O; X1 = O=C(C12CC(CN[*:1])(C1)C2)[*:2]; PhLac = O=C(O)[C@@H](O)Cc1ccccc1; 3Pal = N[C@@H](Cc1cccnc1)C(=O)O; AllylGly = C=CC[C@H](N)C(=O)O; Cba = N[C@@H](CC1CCC1)C(=O)O; NMeA = CN[C@@H](C)C(=O)O; Nle = CCCC[C@H](N)C(=O)O

Chain of KRAS-G12D protein (P01116 1-188 isoform P01116-2 G12D): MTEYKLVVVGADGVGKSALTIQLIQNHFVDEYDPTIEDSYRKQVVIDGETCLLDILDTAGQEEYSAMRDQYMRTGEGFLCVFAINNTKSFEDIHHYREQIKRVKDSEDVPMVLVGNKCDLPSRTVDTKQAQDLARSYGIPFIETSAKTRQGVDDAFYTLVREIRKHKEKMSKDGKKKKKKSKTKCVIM

One test has as its target KRAS-G12D protein (Homo sapiens, UniProt P01116, G12D). Kind of test: SOS-mediated nucleotide exchange assay (BODIPY-GDP / Tb-streptavidin TR-FRET). The format is biochemical.
Conditions: not given
Background: Time-resolved FRET reads energy transfer from a long-lived donor to a nearby acceptor.
Consider `COc1ccc(C[C@@H]2NC(=O)[C@H](CC3CCC3)NC(=O)[C@H](Cc3cccnc3)NC(=O)[C@H](CCCNC(=N)N)NC(=O)[C@H](Cc3ccccc3)NC(=O)CSC[C@](C)(C(N)=O)NC(=O)[C@@H]3CCCCCCCC[C@H](NC2=O)C(=O)N3C)cc1` (single isomer, unassigned) [SEQ ID NO: 191], for which the EC50 (usually the concentration giving half of the maximal effect) was found to be 324 nM.
Take `CCCC[C@@H]1NC(=O)[C@H](Cc2ccc(OC)cc2)NC(=O)[C@H](CC2CCC2)NC(=O)[C@H](Cc2cccnc2)NC(=O)[C@H](CCCNC(=N)N)NC(=O)[C@H](Cc2ccccc2)NC(=O)C2CCC3(CN(C3)C(=O)[C@H](Cc3ccccc3)N(C)C1=O)O2` (single isomer, unassigned) [compound 100, cyclo(F-R-3Pal-cBuA-TyrOMe-Nle-NMeF-spiro54)]: it took 656 nM to reach a half-maximal effect (EC50).
Compound `CCCC[C@@H]1NC(=O)[C@H](Cc2ccccc2F)NC(=O)C(CC2CC(F)(F)C2)NC(=O)[C@H](Cc2cncnc2)NC(=O)[C@H](C)N(C)C(=O)[C@H](Cc2ccccc2)OC(=O)C23CC(CNC(=O)[C@H](Cc4cccnc4)N(C)C1=O)(C2)C3` (single isomer, unassigned) [compound 122, cyclo(FLac-NMeA-PyrimAla-rF2Cba-Phe2F-Nle-NMe3Pal-amBCP)] gave an EC50 of 236 nM.
Still for that read-out and setting: the figure for `CCCC[C@@H]1NC(=O)[C@H](Cc2ccccc2F)NC(=O)C(CC2CC(F)(F)C2)NC(=O)[C@H](Cc2cncnc2)NC(=O)[C@H](C)N(C)C(=O)[C@H](Cc2ccccc2)OC(=O)C23CC(CNC(=O)[C@H](Cc4cccnc4)N(C)C1=O)(C2)C3` (single isomer, unassigned) [compound 123, cyclo(FLac-NMeA-PyrimAla-rF2Cba-Phe2F-Nle-NMe3Pal-amBCP)] is 8190 nM.
Still for that read-out and setting: the figure for `CON=C1C[C@@H](Cc2ccccc2)C(=O)N(C)[C@@H](C)C(=O)N[C@@H](Cc2cncnc2)C(=O)N[C@@H](CC2CC2)C(=O)N[C@@H](Cc2ccccc2F)C(=O)N[C@@H](CCC(C)(F)F)C(=O)N(C)[C@@H](Cc2ccccc2)C(=O)NCC23CC1(C2)C3` (single isomer, unassigned) [compound 177, cyclo(CPhe-NMeA-PyrimAla-cPrA-Phe2F-Nle3F2-NMeF-MeOximamBCP)] is 51 nM.
For the compound `CON=C1C[C@@H](Cc2ccccc2)C(=O)N(C)[C@@H](C)C(=O)N[C@@H](Cc2cncnc2)C(=O)N[C@@H](CC2CC2)C(=O)N[C@@H](Cc2ccccc2F)C(=O)N[C@@H](CCC(C)(F)F)C(=O)N(C)[C@@H](Cc2ccccc2)C(=O)NCC23CC1(C2)C3` (single isomer, unassigned) [compound 178, cyclo(CPhe-NMeA-PyrimAla-cPrA-Phe2F-Nle3F2-NMeF-MeOximamBCP)], a half-maximal effect (EC50) was put at 1.7 nM.
Still for that read-out and setting: for `CCCC[C@@H]1NC(=O)[C@H](Cc2ccc(C(F)(F)F)nc2)NC(=O)[C@H](CCCn2ccnc2)N(C)C(=O)[C@H](Cc2ccccc2)OC(=O)C23CC(CNC(=O)[C@H](Cc4ccccc4)N(C)C(=O)[C@H](CCCC)NC(=O)[C@H](Cc4ccccc4F)NC1=O)(C2)C3` (single isomer, unassigned) [compound 218, cyclo(FLac-NMeNvalmid-4CF33Pal-Nle-Phe2F-Nle-NMeF-amBCP)] the value was 188 nM; for `CCCC[C@@H]1NC(=O)[C@H](Cc2ccc(C(F)(F)F)nc2)NC(=O)[C@H](CCCn2ccnc2)N(C)C(=O)[C@H](Cc2ccccc2)OC(=O)C23CC(CNC(=O)[C@H](Cc4ccccc4)N(C)C(=O)[C@H](CCCC)NC(=O)[C@H](Cc4ccccc4F)NC1=O)(C2)C3` (single isomer, unassigned) [compound 219, cyclo(FLac-NMeNvaImid-4CF33Pal-Nle-Phe2F-Nle-NMeF-amBCP)], 62.8 nM; for `CCCC[C@@H]1NC(=O)[C@H](Cc2cncnc2)NC(=O)[C@H](CCCn2ccnc2)N(C)C(=O)[C@H](Cc2ccccc2)OC(=O)C23CC(CNC(=O)[C@H](Cc4ccccc4)N(C)C(=O)[C@H](CCCC)NC(=O)[C@H](Cc4ccccc4F)NC1=O)(C2)C3` (single isomer, unassigned) [compound 222, cyclo(FLac-NMeNvalmid-PyrimAla-Nle-Phe2F-Nle-NMeF-amBCP)], 494 nM.
Still for that read-out and setting: for `CCCC[C@@H]1NC(=O)[C@H](Cc2cncnc2)NC(=O)[C@H](CCCn2ccnc2)N(C)C(=O)[C@H](Cc2ccccc2)OC(=O)C23CC(CNC(=O)[C@H](Cc4ccccc4)N(C)C(=O)[C@H](CCCC)NC(=O)[C@H](Cc4ccccc4F)NC1=O)(C2)C3` (single isomer, unassigned) [compound 223, cyclo(FLac-NMeNvalmid-PyrimAla-Nle-Phe2F-Nle-NMeF-amBCP)] the value was 25.3 nM; for `CC(C)CC[C@@H]1NC(=O)[C@H](Cc2ccccc2F)NC(=O)[C@H](CC2CC2)NC(=O)[C@H](Cc2cccnc2)NC(=O)[C@H](C)N(C)C(=O)[C@H](Cc2ccccc2)OC(=O)C23CC(CNC(=O)[C@H](Cc4cccnc4F)N(C)C1=O)(C2)C3` (single isomer, unassigned) [compound 297, cyclo(FLac-NMeA-3Pal-cPrA-Phe2F-hL-NMe3Pal2F-amBCP)], 4 nM.
With `CCCC[C@@H]1NC(=O)[C@H](Cc2cnc(C#N)nc2)NC(=O)[C@H](C)N(C)C(=O)[C@H](Cc2ccccc2)OC(=O)C23CC(CNC(=O)[C@H](Cc4ccccc4)N(C)C(=O)[C@H](CCCC)NC(=O)[C@H](Cc4ccccc4F)NC1=O)(C2)C3` (single isomer, unassigned) [compound 314, cyclo(FLac-NMeA-AlaPyrim4CN-Nle-Phe2F-Nle-NMeF-amBCP)], a half-maximal effect (EC50) was put at 24.8 nM.
Still for that read-out and setting: the figure for `CCCC[C@@H]1NC(=O)[C@H](Cc2cnc(C#N)nc2)NC(=O)[C@H](C)N(C)C(=O)[C@H](Cc2ccccc2)OC(=O)C23CC(CNC(=O)[C@H](Cc4ccccc4)N(C)C(=O)[C@H](CCCC)NC(=O)[C@H](Cc4ccccc4F)NC1=O)(C2)C3` (single isomer, unassigned) [compound 315, cyclo(FLac-NMeA-AlaPyrim4CN-Nle-Phe2F-Nle-NMeF-amBCP)] is 5.28 nM; for `CCC[C@@H]1NC(=O)[C@H](Cc2ccc(OC)cc2)NC(=O)[C@H](CC2CCC2)NC(=O)[C@H](Cc2cccnc2)NC(=O)[C@H](CCCNC(=N)N)NC(=O)[C@H](Cc2ccccc2)NC(=O)CSC[C@H](C(N)=O)NC(=O)[C@H](Cc2ccccc2)n2cnnc21` [SEQ ID NO: 64, cyclo(F-R-3Pal-cBuA- TyrOMe-124triazole- dC-ClAc)] ({CH2CO}-FR[3Pal][Cba]Y(Me)[X75][dC]-NH2; thioether N-7) it is 2820 nM; for `CCCC[C@H]1/C=C\[C@@H](Cc2cccnc2)C(=O)NCC23CC(C2)(C3)C(=O)O[C@@H](Cc2ccccc2)C(=O)N(C)[C@@H](C)C(=O)N[C@@H](Cc2cncnc2)C(=O)N[C@@H](CCCC)C(=O)N[C@@H](Cc2ccccc2F)C(=O)N1` [SEQ ID NO: 137, cyclo(FLac-NMeA- PyrimAla-Nle-Phe2F- Nlecalken3Pal-amBCP)] (cyclo([NMeA][Ala(pyrimidin-5-yl)][Nle][Phe(2-F)][X48][X1][PhLac])) it is 590 nM.
The compound `C[C@H]1C(=O)N[C@@H](Cc2cncnc2)C(=O)N[C@@H](CC2CC2)C(=O)N[C@@H](Cc2ccccc2F)C(=O)NC2CC/C=C\CC[C@@H](C(=O)NCC34CC(C3)(C4)C(=O)O[C@@H](Cc3ccccc3)C(=O)N1C)N(C)C2=O` [SEQ ID NO: 182, cyclo(FLac-NMeA-PyrimAla-cPrA-Phe2F-Hag-NMeHag-amBCP)] yielded an EC50 of 225 nM.
Same read-out and setting: the figure for `CCCC[C@@H]1NC(=O)[C@@H]2C/C=C\C[C@@H](C(N)=O)NC(=O)[C@H](CSCC(=O)N[C@@H](Cc3ccccc3)C(=O)N[C@@H](CCCNC(=N)N)C(=O)N[C@@H](Cc3cccnc3)C(=O)N[C@@H](CC3CCC3)C(=O)N2)NC(=O)[C@H](Cc2cccnc2)N(C)C1=O` [SEQ ID NO: 186, cyclo(C1Ac-F-R-3Pal-cBuA-Ape-Nle-NMe3Pal-C)] ({CH2CO}-FR[3Pal][Cba][AllylGly][Nle][NMe3Pal]C[AllylGly]-NH2; staple (Z) 5-9; thioether N-8) is 7270 nM; for `COc1ccc(C[C@@H]2NC(=O)[C@H](CC3CCC3)NC(=O)[C@H](Cc3cccnc3)NC(=O)[C@H](CCCNC(=N)N)NC(=O)[C@H](Cc3ccccc3)NC(=O)CSC[C@](C)(C(N)=O)NC(=O)[C@@H]3CCCCCC[C@H](NC2=O)C(=O)N3C)cc1` [SEQ ID NO: 188, cyclo(F-R-3Pal-cBuA-TyrOMe-RdHagNMeHag-aMeC-C1Ac)] it is 299 nM.
The same measure, in the same setting: for `COc1ccc(C[C@@H]2NC(=O)[C@H](CC3CCC3)NC(=O)[C@H](Cc3cccnc3)NC(=O)[C@H](CCCNC(=N)N)NC(=O)[C@H](Cc3ccccc3)NC(=O)CSC[C@](C)(C(N)=O)NC(=O)[C@@H]3CCCCCCC[C@H](NC2=O)C(=O)N3C)cc1` [SEQ ID NO: 192, cyclo(F-R-3Pal-cBuA-TyrOMe-AheNMeHag-aMeC-C1Ac)] the value was 127 nM; for `COc1ccc(C[C@@H]2NC(=O)[C@H](CC3CCC3)NC(=O)[C@H](Cc3cccnc3)NC(=O)[C@H](CCCNC(=N)N)NC(=O)[C@H](Cc3ccccc3)NC(=O)CSC[C@](C)(C(N)=O)NC(=O)[C@@H]3CCCCCCCC[C@H](NC2=O)C(=O)N3C)cc1` [SEQ ID NO: 193, cyclo(F-R-3Pal-cBuA-TyrOMe-AheNMeAhe-aMeC-C1Ac)], 900 nM.
Compound `CCCC[C@@H]1NC(=O)[C@H](Cc2ccc(O)cc2)NC(=O)[C@H](CC(C)C)NC(=O)[C@H](Cc2ccc(O)cc2)NC(=O)[C@H](CCCNC(=N)N)NC(=O)[C@H](Cc2ccccc2)NC(=O)CSC[C@@H](C(N)=O)NC(=O)[C@H](Cc2ccccc2)N(C)C1=O` [compound 1, cyclo(F-R-Y-L-Y-Nle-NMeF-Cl-ClAc)] came in with an EC50 of 912 nM.

The same test, now with this note: listed as 189.
Compound `COc1ccc(C[C@@H]2NC(=O)[C@H](CC3CCC3)NC(=O)[C@H](Cc3cccnc3)NC(=O)[C@H](CCCNC(=N)N)NC(=O)[C@H](Cc3ccccc3)NC(=O)CSC[C@](C)(C(N)=O)NC(=O)[C@@H]3CCCCCCC[C@H](NC2=O)C(=O)N3C)cc1` (single isomer, unassigned) [SEQ ID NO: 189] yielded an EC50 of 1560 nM.

Staying with this test, now noted: listed as 190.
For the compound `COc1ccc(C[C@@H]2NC(=O)[C@H](CC3CCC3)NC(=O)[C@H](Cc3cccnc3)NC(=O)[C@H](CCCNC(=N)N)NC(=O)[C@H](Cc3ccccc3)NC(=O)CSC[C@](C)(C(N)=O)NC(=O)[C@@H]3CCCCCCC[C@H](NC2=O)C(=O)N3C)cc1` (single isomer, unassigned) [SEQ ID NO: 190], the concentration for a half-maximal effect (EC50) turned out to be 650 nM.
